In US9156860B2, “Boron-containing small molecules” (Anacor Pharmaceuticals, Inc., priority 2011, dated 2015):
Where two headings read alike, the source gives them in different places.

System: Lone star tick larvae (Amblyomma americanum)
Assay: Larval immersion microassay against larval-stage Lone star ticks
Conditions: Amblyomma americanum, read-out: activity (percent larval mortality)
Protocol: The larval immersion microassay was conducted as described in detail in White, et al., J. Med. Entomol. […] Compounds of the invention were formulated in dimethylsulfoxide (DMSO) to prepare a stock solution at a concentration of at least 10 mM. […] Approximately 30-50 Lone star tick larvae (Amblyomma americanum) were submerged into each well containing compounds. After a 30 minute immersion period, larvae were removed with a wide-bore pipette tip in 0.05 ml of fluid, dispensed into a commercial paper tissue biopsy bag which was sealed at the top with a plastic dialysis clip, inverted and allowed to air dry for 60 minutes. Bags containing larvae were then incubated at approximately 27 degrees Celsius and >90% relative humidity. After 24 hours, bags were opened, live and dead larvae were counted and percent larval mortality was calculated.
7 contains one chiral center, and is therefore a racemic mixture comprised of approximately 50% R- and 50% S-enantiomer. In vitro and surrogate animal (rat) studies were conducted to evaluate the biological activity of the R- and S-enantiomers of 7. For the in vitro study, larvae of the Lone star tick (Amblyomma americanum) were exposed to 17 (S-enantiomer) and 18 (R-enantiomer) using the larval immersion microassay at a concentration of no greater than 0.3 mM. Following exposure, larvae were removed, transferred to a tissue biopsy bag and incubated at approximately 27 degrees Celsius and >90% relative humidity. After 24 hours, biopsy bags were opened and the numbers of live and dead larvae were determined.

[1] = concentration of no greater than 0.3 mM, 30 minute immersion, counted after 24 hours

SMILES | mortality at 300 µM (24 h) | mortality at 300 µM [1]
OB1OCc2cc(C3=NOC(c4cc(Cl)cc(Cl)c4)(C(F)(F)F)C3)ccc21 (stereo not shown) [Compound 1, 5-(5-(3,5-Dichlorophenyl)-5-(trifluoromethyl)-4,5-dihydroisoxazol-3-yl)benzo[c][1,2]oxaborol-1(3H)-ol] | ≥ 80% | 
CC1(C)OB(O)c2ccc(C3=NOC(c4cc(Cl)cc(Cl)c4)(C(F)(F)F)C3)cc21 (stereo not shown) [Compound 2, 5-(5-(3,5-Dichlorophenyl)-5-(trifluoromethyl)-4,5-dihydroisoxazol-3-yl)-3,3-dimethyl-benzo[c][1,2]oxaborol-1(3H)-ol] | ≥ 80% | 
CC1(C)OB(O)c2ccc(C3=NO[C@@](c4cc(Cl)cc(Cl)c4)(C(F)(F)F)C3)cc21 [Compound 3, (S)-5-(5-(3,5-dichlorophenyl)-5-(trifluoromethyl)-4,5-dihydroisoxazol-3-yl)-3,3-dimethyl benzo[c][1,2]oxaborol-1(3H)-ol] | ≥ 80% | 
CC1(C)OB(O)c2ccc(C3=NOC(c4cc(Br)cc(Br)c4)(C(F)(F)F)C3)cc21 (stereo not shown) [Compound 5, 5-(5-(3,5-Dibromophenyl)-5-(trifluoromethyl)-4,5-dihydroisoxazol-3-yl)-3,3-dimethyl-benzo[c][1,2]oxaborol-1(3H)-ol] |  | ≥ 80%
CC1(C)OB(O)c2ccc(C3=NOC(c4cc(Cl)cc(C(F)(F)F)c4)(C(F)(F)F)C3)cc21 (stereo not shown) [Compound 6] | ≥ 80% | 
Cc1c(Cl)cc(C2(C(F)(F)F)CC(c3ccc4c(c3)C(C)(C)OB4O)=NO2)cc1Cl (stereo not shown) [Compound 9, 5-(5-(3,5-Dichloro-4-methylphenyl)-5-(trifluoromethyl)-4,5-dihydroisoxazol-3-yl)-3,3-dimethylbenzo[c][1,2]oxaborol-1(3H)-ol] | ≥ 80% | 
CC1(C)OB(O)c2ccc(C3=NOC(c4cc(Cl)c(C(F)(F)F)c(Cl)c4)(C(F)(F)F)C3)cc21 (stereo not shown) [Compound 10, 5-(5-(3,5-Dichloro-4-(trifluoromethyl)phenyl)-5-(trifluoromethyl)-4,5-dihydroisoxazol-3-yl)-3,3-dimethyl-benzo[c][1,2]oxaborol-1(3H)-ol] | ≥ 80% | 
CC1(C)OB(O)c2ccc(C3=NOC(c4cc(Cl)c(C(F)F)c(Cl)c4)(C(F)(F)F)C3)cc21 (stereo not shown) [Compound 11, 5-(5-(3,5-Dichloro-4-(difluoromethyl)phenyl)-5-(trifluoromethyl)-4,5-dihydroisoxazol-3-yl)-3,3-dimethyl-benzo[c][1,2]oxaborol-1(3H)-ol] | ≥ 80% | 
CC1(C)OB(O)c2ccc(C3=NOC(c4cc(Cl)c(OC(F)(F)F)c(Cl)c4)(C(F)(F)F)C3)cc21 (stereo not shown) [Compound 12, 5-(5-(3,5-Dichloro-4-(trifluoromethoxy)phenyl)-5-(trifluoromethyl)-4,5-dihydro-isoxazol-3-yl)-3,3-dimethylbenzo[c][1,2]oxaborol-1(3H)-ol] | ≥ 80% | 
CC1(C)OB(O)c2ccc(C3=NOC(c4cc(C(F)(F)F)cc(C(F)(F)F)c4)(C(F)(F)F)C3)cc21 (stereo not shown) [Compound 14, 5-(5-(3,5-Bis(trifluoromethyl)phenyl)-5-(trifluoromethyl)-4,5-dihydroisoxazol-3-yl)-3,3-dimethylbenzo[c][1,2]oxaborol-1(3H)-ol] | ≥ 80% | 
CC1(C)OB(O)c2ccc(C3=NOC(c4ccc(F)c(Cl)c4)(C(F)(F)F)C3)cc21 (stereo not shown) [Compound 19, 5-(5-(3-Chloro-4-fluorophenyl)-5-(trifluoromethyl)-4,5-dihydroisoxazol-3-yl)-3,3-dimethylbenzo[c][1,2]oxaborol-1(3H)-ol] |  | ≥ 80%
CC1(C)OB(O)c2ccc(C3=NOC(c4cc(Cl)c(Br)c(Cl)c4)(C(F)(F)F)C3)cc21 (stereo not shown) [Compound 21, 5-(5-(4-Bromo-3,5-dichlorophenyl)-5-(trifluoromethyl)-4,5-dihydroisoxazol-3-yl)-3,3-dimethylbenzo[c][1,2]oxaborol-1(3H)-ol] | ≥ 80% | 
COc1c(Cl)cc(C2(C(F)(F)F)CC(c3ccc4c(c3)C(C)(C)OB4O)=NO2)cc1Cl (stereo not shown) [Compound 22, 5-(5-(3,5-Dichloro-4-methoxyphenyl)-5-(trifluoromethyl)-4,5-dihydroisoxazol-3-yl)-3,3-dimethylbenzo[c][1,2]oxaborol-1(3H)-ol] | ≥ 80% | 
CC1(C)OB(O)c2ccc(C3=NOC(c4ccc(Cl)c(Cl)c4)(C(F)(F)F)C3)cc21 (stereo not shown) [Compound 23, 5-(5-(3,4-Dichlorophenyl)-5-(trifluoromethyl)-4,5-dihydroisoxazol-3-yl)-3,3-dimethyl-benzo[c][1,2]oxaborol-1(3H)-ol] |  | ≥ 80%
CC1(C)OB(O)c2ccc(C3=NOC(c4ccc(F)c(C(F)(F)F)c4)(C(F)(F)F)C3)cc21 (stereo not shown) [Compound 24, 5-(5-(4-Fluoro-3-(trifluoromethyl)phenyl)-5-(trifluoromethyl)-4,5-dihydroisoxazol-3-yl)-3,3-dimethylbenzo[c][1,2]oxaborol-1(3H)-ol] |  | ≥ 80%
CC1(C)OB(O)c2ccc(C3=NOC(c4cc(F)c(F)c(Cl)c4)(C(F)(F)F)C3)cc21 (stereo not shown) [Compound 25, 5-(5-(3-Chloro-4,5-difluorophenyl)-5-(trifluoromethyl)-4,5-dihydroisoxazol-3-yl)-3,3-dimethylbenzo[c][1,2]oxaborol-1(3H)-ol] |  | ≥ 80%
CC1(C)OB(O)c2ccc(C3=NOC(c4cc(F)c(Cl)c(Cl)c4)(C(F)(F)F)C3)cc21 (stereo not shown) [Compound 26, 5-(5-(3,4-Dichloro-5-fluorophenyl)-5-(trifluoromethyl)-4,5-dihydroisoxazol-3-yl)-3,3-dimethylbenzo[c][1,2]oxaborol-1(3H)-ol] |  | ≥ 80%
CC1(C)OB(O)c2ccc(C3=NOC(c4cc(Br)c(Cl)c(Br)c4)(C(F)(F)F)C3)cc21 (stereo not shown) [Compound 27, 5-(5-(3,5-Dibromo-4-chlorophenyl)-5-(trifluoromethyl)-4,5-dihydroisoxazol-3-yl)-3,3-dimethylbenzo[c][1,2]oxaborol-1(3H)-ol] |  | ≥ 80%
CC1(C)OB(O)c2ccc(C3=NO[C@@](c4cc(Cl)c(F)c(Cl)c4)(C(F)(F)F)C3)cc21 [Compound 28, (S)-5-(5-(3,5-Dichloro-4-fluorophenyl)-5-(trifluoromethyl)-4,5-dihydroisoxazol-3-yl)-3,3-dimethylbenzo[c][1,2]oxaborol-1(3H)-ol] | ≥ 80% | 
CC1(C)OB(O)c2ccc(C3=NOC(c4cc(F)c(Cl)c(F)c4)(C(F)(F)F)C3)cc21 (stereo not shown) [Compound 30, 5-(5-(4-Chloro-3,5-difluorophenyl)-5-(trifluoromethyl)-4,5-dihydroisoxazol-3-yl)-3,3-dimethylbenzo[c][1,2]oxaborol-1(3H)-ol] |  | ≥ 80%
CC1(C)OB(O)c2ccc(C3=NOC(c4cc(Br)c(F)c(Br)c4)(C(F)(F)F)C3)cc21 (stereo not shown) [Compound 32, 5-(5-(3,5-Dibromo-4-fluorophenyl)-5-(trifluoromethyl)-4,5-dihydroisoxazol-3-yl)-3,3-dimethylbenzo[c][1,2]oxaborol-1(3H)-ol] |  | ≥ 80%
CC1(C)OB(O)c2ccc(C3=NOC(c4cc(Cl)c(Cl)c(Cl)c4Cl)(C(F)(F)F)C3)cc21 (stereo not shown) [Compound 34, 3,3-Dimethyl-5-(5-(2,3,4,5-tetrachlorophenyl)-5-(trifluoromethyl)-4,5-dihydroisoxazol-3-yl)benzo[c][1,2]oxaborol-1(3H)-ol] | ≥ 80% | 
CC1(C)OB(O)c2ccc(C3=NOC(c4cc(Cl)c(F)c(Cl)c4F)(C(F)(F)F)C3)cc21 (stereo not shown) [Compound 35] | ≥ 80% | 
CC1(C)OB(O)c2cc(F)c(C3=NOC(c4cc(Cl)cc(Cl)c4)(C(F)(F)F)C3)cc21 (stereo not shown) [Compound 41] | ≥ 80% | 
CC1(C)OB(O)c2cc(F)c(C3=NOC(c4cc(Cl)c(Cl)c(Cl)c4)(C(F)(F)F)C3)cc21 (stereo not shown) [Compound 42, 6-Fluoro-3,3-dimethyl-5-(5-(3,4,5-trichlorophenyl)-5-(trifluoromethyl)-4,5-dihydroisoxazol-3-yl)benzo[c][1,2]oxaborol-1(3H)-ol] | ≥ 80% | 
